Test system: 171881-019-R-J1-PDC complex spheroid viability
Assay: Anticancer human tumor 171881-019-R-J1-PDC patient-derived invasive breast carcinoma cell line growth inhibition
Conditions: for IC50: curve of first compound; for viability, T/C: stronger effect = lower value
From the text: Multicellular complex tumor spheroid response to LSD1 Inhibitor Iadademstat in combination with a variety of drugs and investigational agents in selected tumor cell lines
The current study was undertaken to assess response to LSD1 inhibitors in combination with standard-of-care drugs and investigational agents in solid tumor complex spheroid models as well as in the K-562 leukemia. Complex spheroids include a stromal component modeled by human endothelial cells (HUVEC) and fibroblasts modeled by human mesenchymal stem cells (MSCs). The concentration ranges selected for each drug and investigational agent were based upon clinically achievable concentrations if the clinical Cmax of the agent was known.
Compounds. The drugs and investigational agents used in this study are listed on Table 1. All of the agents used, including staurosporine (NSC755774) and gemcitabine (NSC613327), were obtained from the Developmental Therapeutics Program, NCI. FDA-approved anticancer drugs are available from the NCI at http://dtp.nci.nih.gov/branches/dscb/oncology_drugset_explanation.html. Drugs and investigational agents were >95% pure by proton nuclear magnetic resonance (NMR) and liquid chromatography/mass spectrometry (LC/MS). Stock solutions were prepared at 400x in DMSO, stored at -70 degrees C, and diluted in fresh medium prior to their use. The final concentration of DMSO in cell culture wells never exceeded 0.25% (v/v). The FDA-approved anticancer drug set is available from the Developmental Therapeutics Program at https://dtp.cancer.gov/organization/dscb/obtaining/available_plates.htm. All drugs and investigational agents were tested over a range starting from a high concentration at or near the clinical Cmax and decreasing in half-log increments. If the clinical Cmax for an agent had not been determined, the highest concentration tested was 10 microM.
Cell Lines. The patient-derived cancer cell (PDC) lines: 292921-168-R-J2-PDC, K24384-001-R-PDC, and 521955-158-R2-J5-PDC pancreatic carcinomas, 556581-035-R-J1 ovarian carcinoma, 324938-238-R-J1-PDC, 855422-203-R-J1-PDC and 883617-216-R-J1-PDC urothelial bladder carcinomas, 743489-274-T-PDC renal cell carcinoma, 138582-R-J1 Merkel cell tumor, K60290-347-R-J1 and K57222-313-R-J1-PDC glioblastomas, 653999-131-R-J2-PDC, LG0703-F948-PDC, and 349418-098-R-PDC non-small cell lung carcinomas, 885512-296-R-J2-PDC, 171881-019-R-J1-PDC breast carcinomas and 186277-243-T-J2-PDC and 233499-124-R-J2-PDC colon carcinomas were obtained from the NCI Patient-Derived Models Repository (PDMR, https://pdmr.cancer.gov). The established cell lines NCI/ADR-RES (RRID:CVCL_14520 and OVCAR-5 (RRID:CVCL_1628) ovarian carcinomas, 786-O (RRID:CVCL_1051) and A498 (RRID:CVCL_A498) renal cell carcinoma, NCI-H211 (ATCC, cat. CRL-5824; RRID:CVCL_1529), NCI-H196 (ATCC, cat. CRL-5823, RRID:CVCL_1509), SW 1271 (ATCC, cat. CRL-2177, RRID:CVCL_1716) and NCI-H1876 (ATCC, cat. CRL-5902, RRID:CVCL_1503) small cell lung carcinomas, MDA-MB-231 (RRID:CVCL_0062) and MDA-MB-468 (RRID:CVCL_0419)breast carcinomas (10-12). Pooled donor human umbilical vein endothelial cells (HUVEC, Lonza, cat. CC-2519) and human mesenchymal stem cells (hMSC, Lonza, cat. PT-2501) were purchased from Lonza (Walkersville, MD).
Cell Culture. All cells were maintained in an incubator at 37 degrees C and 5% CO2 with 95% humidity. The PDC lines were cultured according to standard operating procedures established by the NCI PDMR (https://pdmr.cancer.gov). Briefly all PDCs were thawed and cultured in Matrigel-coated flasks prepared with a working solution of 1X Ham's F-12 nutrient mix, without supplementation (Invitrogen, Waltham, MA, cat. 11765054), 100 U/mL penicillin-streptomycin (Invitrogen, cat. 15140122), and 2.5% Matrigel (Corning Inc., Corning, NY, cat. 354248) for the first three passages. […]

[1] = second compound 0.1 µM, first compound 0.00316 µM
[2] = second compound 0.1 µM, first compound 0.01 µM
[3] = second compound 0.1 µM, first compound 0.0316 µM
[4] = second compound 0.1 µM, first compound 0.1 µM
[5] = second compound 0.316 µM, first compound 0.00316 µM
[6] = second compound 0.316 µM, first compound 0.01 µM
[7] = second compound 0.316 µM, first compound 0.0316 µM
[8] = second compound 0.316 µM, first compound 0.1 µM
[9] = second compound 1 µM, first compound 0.00316 µM
[10] = second compound 1 µM, first compound 0.01 µM
[11] = second compound 1 µM, first compound 0.0316 µM
[12] = second compound 1 µM, first compound 0.1 µM
[13] = second compound 3.16 µM, first compound 0.00316 µM
[14] = second compound 3.16 µM, first compound 0.01 µM
[15] = second compound 3.16 µM, first compound 0.0316 µM
[16] = second compound 3.16 µM, first compound 0.1 µM
[17] = second compound 10 µM, first compound 0.00316 µM
[18] = second compound 10 µM, first compound 0.01 µM
[19] = second compound 10 µM, first compound 0.0316 µM
[20] = second compound 10 µM, first compound 0.1 µM
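Also: spheroids exposed to agents for 7 days after 3 days growth.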

Row | SMILES | IC50 (second compound 0.1 µM) [nM] | IC50 (second compound 0.316 µM) [nM] | IC50 (second compound 1 µM) [nM] | IC50 (second compound 3.16 µM) [nM] | IC50 (second compound 10 µM) [nM] | viability, T/C [1] [%] | viability, T/C [2] [%] | viability, T/C [3] [%] | viability, T/C [4] [%] | viability, T/C [5] [%] | viability, T/C [6] [%] | viability, T/C [7] [%] | viability, T/C [8] [%] | viability, T/C [9] [%] | viability, T/C [10] [%] | viability, T/C [11] [%] | viability, T/C [12] [%] | viability, T/C [13] [%] | viability, T/C [14] [%] | viability, T/C [15] [%] | further results
1 | COc1cc(Nc2ncc3c(n2)-c2ccc(Cl)cc2C(c2c(F)cccc2OC)=NC3)ccc1C(=O)O + NC1CCC(NC2CC2c2ccccc2)CC1 | > 1000 | > 1000 | > 1000 | > 1000 | > 1000 | 105 | 99.2 | 100 | 99.6 | 111 | 92.9 | 98.6 | 95.9 | 112 | 107 | 93.5 | 105 | 110 | 104 | 95.7 | viability, T/C (second compound 0.1 µM, first compound 0.316 µM): 93.7%; viability, T/C (second compound 0.1 µM, first compound 1 µM): 60.1%; viability, T/C (second compound 0.316 µM, first compound 0.316 µM): 92.4%; viability, T/C (second compound 0.316 µM, first compound 1 µM): 59.2%; viability, T/C (second compound 1 µM, first compound 0.316 µM): 88.5%; viability, T/C (second compound 1 µM, first compound 1 µM): 62.2%; viability, T/C [16]: 88.3%; viability, T/C (second compound 3.16 µM, first compound 0.316 µM): 92%; viability, T/C (second compound 3.16 µM, first compound 1 µM): 60.9%; viability, T/C [17]: 113%; viability, T/C [18]: 111%; viability, T/C [19]: 97.6%; viability, T/C [20]: 104%; viability, T/C (second compound 10 µM, first compound 0.316 µM): 86.7%; viability, T/C (second compound 10 µM, first compound 1 µM): 60.7%
2 | CC(C)CC(NC(=O)CNC(=O)c1cc(Cl)ccc1Cl)B1OC(=O)CC(CC(=O)O)(C(=O)O)O1 (stereo not given) + NC1CCC(NC2CC2c2ccccc2)CC1 | 3.66 | 3.22 | 3.66 | 3.84 | 3.71 | 54.9 | 13.2 | 3.51 | 4.11 | 49.8 | 11.8 | 3.3 | 1.04 | 54.5 | 13.6 | 3.7 | 1 | 57.1 | 12.4 | 3.26 | viability, T/C (second compound 0.1 µM, first compound 0.000316 µM): 87.4%; viability, T/C (second compound 0.1 µM, first compound 0.001 µM): 86.8%; viability, T/C (second compound 0.316 µM, first compound 0.000316 µM): 84.8%; viability, T/C (second compound 0.316 µM, first compound 0.001 µM): 83.8%; viability, T/C (second compound 1 µM, first compound 0.000316 µM): 79%; viability, T/C (second compound 1 µM, first compound 0.001 µM): 82.2%; viability, T/C (second compound 3.16 µM, first compound 0.000316 µM): 91.7%; viability, T/C (second compound 3.16 µM, first compound 0.001 µM): 90.8%; viability, T/C [16]: 0.97%; viability, T/C (second compound 10 µM, first compound 0.000316 µM): 86.1%; viability, T/C (second compound 10 µM, first compound 0.001 µM): 94.2%; viability, T/C [17]: 56.2%; viability, T/C [18]: 8.46%; viability, T/C [19]: 1.96%; viability, T/C [20]: 0.65%
